# Measured values taken from patent publication US9701646B2, “Small molecule inhibitors of PI3-kinase signaling” (Tufts University, priority 2013, dated 2017).
# Read-outs that look alike come from different tables or passages of the source.
# How the values were obtained:
# [1] = tested on: U87MG human glioblastoma cells; assay: Cell viability of U87MG cells, ATP assay; assay type: cell-based; details: for EC50: Homo sapiens, U-87 MG, 24 h
# Description: U87MG human glioblastoma cells were maintained in culture at 37° C., 5% CO2, complete medium for 24 h in the presence of various final concentrations of YK-NCL-176, YK-NCL-177, YK-NCL-178, YK-NCL-179, YK-NCL-180, YK-NCL-183, YK-NCL-184, YK-NCL-185, YK-NCL-186, YK-NCL-187, YK-NCL-188, YK-NCL-189, YK-NCL-190, YK-NCL-191, YK-NCL-192, YK-NCL-193, YK-NCL-194, YK-NCL-195, YK-NCL-196, YK-NCL-197, NK-YCL-198, or YK-NCL-199, each in DMSO, with or without 1 μg/mL TRAIL. DMSO alone was used as a negative control. Following the incubation, cell viability was measured using an ATP assay.
# [2] = Micellar drug release by dialysis; assay type: physicochemical; details: 37° C.
# Description: Drug-loaded micelles were analyzed for their in vitro drug release profile at 37° C. in 1×PBS pH 7.4 over 48 hrs. Micelles were prepared as described previously. 500 μL of drug-loaded micelles were aliquoted into Spectra/Pro® regenerated cellulose dialysis membranes with a MWCO of 1,000 Da and dialyzed against a large excess of 1×PBS pH 7.4. At predetermined times, dialysis bags were opened and aliquots of sample were taken and diluted with 200 μL acetonitrile. Drug concentration was determined by HPLC using previously described methods.
# [3] = tested on: A2780 ovarian carcinoma; assay: A2780 cell viability, CellTiter-Blue, free and micellar formulations; assay type: cell-based, human; details: for cytotoxicity on addition of TRAIL to the formulation: A2780, micellar formulation plus TRAIL; for cytotoxicity as free compound compared to DM-PIT-1: A2780, 24 h
# Description: Cell viability of A2780 ovarian carcinoma was measured using CellTiter-Blue® (Promega, Madison, Wis.) viability assay. Briefly, cells were seeded in 96-well plates according to proper cell densities (3,000-5,000 cells). After 24 h incubation in 5% CO2 at 37° C., cells were treated with formulations at various concentrations for 24 h in serum complete media. After 24 h treatment, media was removed, the wells were washed with serum complete media and replaced with 50 μL media and 10 μL CellTiter-Blue®. Cell viability was evaluated after 4 h of incubation at 37° C. at 5% CO2 by measuring the fluorescence (ex. 550 nm, em. 590 nm) using a Synergy HT multi-detection microplate reader (Biotek, Winooski, Vt.).
# [4] = Micellar drug loading by reverse phase HPLC; assay type: physicochemical; details: PEG-PE micelles, PEG-PE 13.07 mg/mL, n = 3 with SD
# Description: Drug incorporation efficiency was measured by reverse phase HPLC using an Xbridge C18 ([…]) column (Waters Corporation, Milford, Mass.) on a Hitachi Elite LaChrom HPLC with autosampler (Pleasanton, Calif.). The HPLC method was modified from previously published method. Skidan I et al., J Chromatogr B Analyt Technol Biomed Life Sci 879:1610-1616 (2011). The mobile phase consisted of either 70:30 acetonitrile:water (DM-PIT-1) or 60:40 acetonitrile:water (NCL-176, NCL-179, NCL-198, NCL-240) with a flow rate of 1 mL/min. Detection of drug was performed at a wavelength corresponding to a peak on the absorption spectrum (DM-PIT-1: 320 nm, NCL-176: 260 nm, NCL-179: 295 nm, NCL-198: 295 nm, NCL-240: 300 nm). Sample injections were kept constant at 50 μL and the sample runtime was 10 min. Concentration of drug was determined by measuring the area under curve of the peak. Standard curves of stock drug in acetonitrile from concentrations of 10 μg/mL to 15 ng/mL were used to determine incorporation of drug in micelles. 5 μL of dialyzed drug-loaded micelles were diluted in 495 μL acetonitrile to destroy micelles.
# [5] = tested on: A2780 human ovarian cancer cells; assay: Cell viability of A2780 cells, ATP assay; assay type: cell-based; details: for concentration at which cell viability was reduced by at least 50 percent / cell viability in combination with TRAIL / EC50: A2780, 24 h; for concentration at which cell viability was reduced by at least 50 percent: alone; for cell viability in combination with TRAIL: versus compound alone; for EC50: Homo sapiens
# Description: A2780 human ovarian cancer cells were maintained in culture at 37° C., 5% CO2, complete medium for 24 h in the presence of various final concentrations of DM-PIT-1, YK-NCL-176, YK-NCL-198, or NK-YCL-240, each in DMSO, with or without 1 μg/mL TRAIL. DMSO alone was used as a negative control. Following the incubation, cell viability was measured using an ATP assay.
# A2780 human ovarian cancer cells were maintained in culture at 37° C., 5% CO2, complete medium for 24 h in the presence of various final concentrations of DM-PIT-1, YK-NCL-217, YK-NCL-218, NK-YCL-219, YK-NCL-220, YK-NCL-234, or YK-NCL-241, each in DMSO, with or without 1 μg/mL TRAIL. DMSO alone was used as a negative control. Following the incubation, cell viability was measured using an ATP assay.
# [6] = tested on: A2780 cells; assay: In vitro wound closure (cell migration), A2780; assay type: cell-based, human; details: A2780, up to 76 h
# Description: A2780 cells and T47D cells were grown to confluence in separate cultures under conditions of 37° C., 5% CO2, and complete medium. At time zero, a pipette tip was dragged across the cells, producing a linear defect in the confluent layer of cells. Medium was then supplemented with various concentrations of DM-PIT-1, YK-NCL-176, or YK-NCL-240, or an equivalent volume of DMSO alone, and cells were maintained in culture for an additional 76 h. Linear defects were viewed with a microscope at 0, 21, 47, 69, and 76 h following addition of test agent, and the width of the defect was quantitated at each time point. This in vitro assay represents a model of wound closure.
# [7] = tested on: DU145 human prostate cancer cells; assay: Cell viability of DU145 cells; assay type: cell-based
# [8] = molecular target: Akt PH domain (Homo sapiens, UniProt P31749); assay: Inhibition of Akt PH domain binding to PIP3; details: in vitro
# [9] = mouse, in vivo
# [10] = tested on: T47D human breast cancer cells; assay: Cell viability of T47D cells; assay type: cell-based
# [11] = in DMSO, without TRAIL, read-out: EC50 alone
# [12] = with 1 μg/mL TRAIL, read-out: EC50 with TRAIL
# Sequence of Akt PH domain (P31749 5-108 limits assumed): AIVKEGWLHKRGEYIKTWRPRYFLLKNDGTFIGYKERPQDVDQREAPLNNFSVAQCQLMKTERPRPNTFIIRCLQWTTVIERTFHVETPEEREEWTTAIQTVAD
SMILES,"EC50 [1, 11] [µM]","EC50 [1, 12] [µM]",cytotoxicity on addition of TRAIL to the formulation [3],concentration at which cell viability was reduced by at least 50 percent [5] [µM],cell viability in combination with TRAIL ([5]; with 1 μg/mL TRAIL),inhibition of cell migration (wound closure) [6],"drug released from micelles ([2]; 1×PBS pH 7.4, after 48 h) [%]",cytotoxicity as free compound compared to DM-PIT-1 [3],also measured
"O=C(c1ccccc1)c1cn(-c2cc(Cl)ccc2O)nn1 [YK-NCL-176, (1-(5-Chloro-2-hydroxyphenyl)-1H-1,2,3-triazol-4-yl)(phenyl)methanone]",104,51.6,markedly increased cytotoxicity,25,further reduced cell viability,significantly more effectively than DM-PIT-1,–,–,"drug released from micelles ([2]; 1×PBS pH 7.4, at 10 h): completely released; Loading Eff. [4]: slightly lower loading"
"Oc1ccc(Cl)cc1-n1cc(C(O)(c2cc(C(F)(F)F)cc(C(F)(F)F)c2)c2cn(-c3cc(Cl)ccc3O)nn2)nn1 [YK-NCL-198, 2,2′-(((3,5-Bis(trifluoromethyl)phenyl)(hydroxy)methylene)bis(1H-1,2,3-triazole-4,1-diyl))bis(4-chlorophenol)]",34.8,18.8,–,12.5,further reduced cell viability,–,40,improved cytotoxicity properties,melting point: 214 °C
"O=C(c1cc(C(F)(F)F)cc(C(F)(F)F)c1)c1cn(-c2cc(Cl)ccc2O)nn1 [YK-NCL-240, (3,5-Bis(trifluoromethyl)phenyl)(1-(5-chloro-2-hydroxyphenyl)-1H-1,2,3-triazol-4-yl)methanone]",–,–,markedly increased cytotoxicity,< 6.25,further reduced cell viability,significantly more effectively than either DM-PIT-1 or YK-NCL-176,60,improved cytotoxicity properties,"effect of combination with TRAIL on cell viability ([1]; 1 μg/mL TRAIL): synergistic effect; in vitro cell viability ([1]; in DMSO, alone): reduce in vitro cell viability; effect of combination with TRAIL on cell viability ([7]; DU145, 1 μg/mL TRAIL): synergistic effect; in vitro cell viability ([7]; DU145, in DMSO, alone): reduce in vitro cell viability; binding of the Akt PH domain to PIP3 [8]: robustly inhibited; non-toxic dose [9]: up to 50 mg/kg; improvement of EC50 compared to DM-PIT-1 alone ([5]; A2780, alone): 15 fold; improvement of EC50 compared to the combination of DM-PIT-1 and TRAIL ([5]; A2780, with TRAIL): 20 fold; EC50 [5, 11]: 1.85 µM; EC50 [5, 12]: 1.11 µM; effect of combination with TRAIL on cell viability ([10]; 1 μg/mL TRAIL): synergistic effect; in vitro cell viability ([10]; in DMSO, alone): reduce in vitro cell viability"
